The values below come from ChEMBL document CHEMBL5728812, “Inhibitors of Plasma Kallikrein and uses thereof” (2021).

This experiment deals with Plasma kallikrein (Homo sapiens, UniProt P03952). Nature of the experiment: Inhibitory Activity Assay: Plasma Kallikrein: The example compounds were evaluated for inhibition of the human activated kallikrein enzyme in two formats of an assay employing a fluorogenic peptide substrate. In one assay format, the concentrations of reagents were as follows: 20 mM Tris pH 7.5, 1 mM EDTA, 150 mM sodium chloride, 0.1% PEG-400, 0.1% Triton X-100, 500 pM activated kallikrein enzyme, 300 uM Pro-Phe-Arg-7-amido-4-methylcoumarin substrate. Prior to reaction initiation with substrate, enzyme and inhibitors were preincubated for 30 min at room temperature. After initiation with substrate, reactions were incubated for 10 min at room temperature and fluorescence emission at 460 nm from 380 nm excitation measured with a microplate reader. In another assay format, the concentrations of reagents were as follows: 20 mM Tris pH 7.5, 1 mM EDTA, 150 mM sodium chloride, 0.1% PEG-400, 0.1% Triton X-100, 5 pM activated kallikrein enzyme, 300 uM Pro-Phe-Arg-7-amido-4-methylcoumarin substrate. Prior to reaction initiation with substrate, enzyme and inhibitors were preincubated for 30 min at room temperature. After initiation with substrate, reactions were incubated for 18 hr at room temperature and fluorescence emission at 460 nm from 380 nm excitation measured with a microplate reader.

The structures appear in SMILES notation. pEC50: −log10 of the molar value.

Plasma kallikrein, sequence (P03952 20-390 limits assumed): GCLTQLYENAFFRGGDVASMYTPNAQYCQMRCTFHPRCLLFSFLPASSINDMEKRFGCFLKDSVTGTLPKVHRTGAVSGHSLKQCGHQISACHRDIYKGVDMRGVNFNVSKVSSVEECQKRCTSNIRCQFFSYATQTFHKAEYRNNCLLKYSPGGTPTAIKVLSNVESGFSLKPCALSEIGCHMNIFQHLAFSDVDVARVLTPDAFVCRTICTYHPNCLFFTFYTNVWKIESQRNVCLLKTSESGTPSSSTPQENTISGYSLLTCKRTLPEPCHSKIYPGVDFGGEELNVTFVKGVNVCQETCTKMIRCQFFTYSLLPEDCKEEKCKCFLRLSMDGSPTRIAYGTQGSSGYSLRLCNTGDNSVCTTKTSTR
Plasma kallikrein, sequence (P03952 391-638 limits assumed): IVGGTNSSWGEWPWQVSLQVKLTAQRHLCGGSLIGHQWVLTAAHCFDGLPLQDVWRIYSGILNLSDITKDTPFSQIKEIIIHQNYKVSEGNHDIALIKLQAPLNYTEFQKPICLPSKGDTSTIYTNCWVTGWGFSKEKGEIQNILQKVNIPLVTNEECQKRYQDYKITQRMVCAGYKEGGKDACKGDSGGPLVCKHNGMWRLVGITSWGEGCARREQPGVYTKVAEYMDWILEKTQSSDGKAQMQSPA

`CNC(=O)[C@H](CCCCNC(=N)N)NC(=O)c1csc([C@@H]2C[C@@H](N)CN2C(=O)c2ccc3cc(Cl)ccc3n2)n1`: the negative logarithm of the EC50 (pEC50) is greater than 7.00.

The pEC50 is the negative decadic logarithm of the EC50, by convention in mol/L. The low end stands for a high EC50, the high end for a low EC50.
